How the values were obtained:
Assay in all cases: Postemergence foliar-applied weed control, direct-seeded rice (greenhouse)
[1] = tested on: ECHCG; type: in vivo, Echinochloa crus-galli (L.) P. Beauv. (barnyardgrass)
Description: (§1) Seeds or nutlets of the desired test plant species were planted in a soil matrix prepared by mixing aloam or sandy loam soil (e.g., 28.6 percent silt, 18.8 percent clay, and 52.6 percent sand, with a pH of about 5.8 and an organic matter content of about 1.8 percent) and calcareous grit in an 80 to 20 ratio. The soil matrix was contained in plastic pots with a volume of 1 quart and a surface area of 83.6 square centimeters (cm^2). […] The plants were grown for 8-22 days in a greenhouse with an approximate 14 hour (h) photoperiod which was maintained at about 29° C. during the day and 26° C. during the night. Nutrients (Peters Excel® 15-5-15 5-Ca 2-Mg and iron chelate) were applied in the irrigation solution as needed and water was added on a regular basis. Supplemental lighting was provided with overhead metal halide 1000-Watt lamps as necessary. The plants were employed for testing when they reached the first through fourth true leaf stage.
(§2) Treatments consisted of the acid or esters of 4-amino-3-chloro-5-fluoro-6-(4-chloro-2-fluoro-3-methoxy-phenyl)pyridine-2-carboxylic acid (Compound A), each formulated as an SC (suspension concentrate), and various fungicidal components alone and in combination. Forms of compound A were applied on an acid equivalent basis.
(§3) For treatments comprised of formulated compounds, measured amounts of compounds were placed individually in 25 mL glass vials and diluted in a volume of 1.25% volume per volume (v/v) Agri-Dex® crop oil concentrate to obtain 12× stock solutions. […] Application solutions were prepared by adding an appropriate amount of each stock solution (e.g., 1 mL) and diluted to the appropriate final concentrations with the addition of […] of an aqueous mixture of 1.25% (v/v) crop oil concentrate so that the final spray solutions contained 1.25+/−0.05% (v/v) crop oil concentrate.
(§4) For treatments comprised of technical compounds, weighed amounts can be placed individually in 25 mL glass vials and dissolved in a volume of 97:3 volume per volume (v/v) acetone/dimethyl sulfoxide (DMSO) to obtain 12× stock solutions. […] When technical materials are used, the concentrated stock solutions can be added to the spray solutions so that the final acetone and DMSO concentrations of the application solutions are 16.2% and 0.5%, respectively.
(§5) As required, additional water and/or 97:3 v/v acetone/DMSO was added to individual application solutions so that the final acetone and DMSO concentrations of the application solutions being compared were 8.1% and 0.25%, respectively
(§6) All stock solutions and applications solutions were visually inspected for compound compatibility prior to application. Spray solutions were applied to the plant material with an overhead Mandel track sprayer equipped with 8002E nozzles calibrated to deliver 187 L/ha over an application area of 0.503 square meters (m^2) at a spray height of 18 to 20 inches (46 to 50 cm) above average plant canopy height. Control plants were sprayed in the same manner with the solvent blank.
(§7) The treated plants and control plants were placed in a greenhouse as described above and watered by sub-irrigation to prevent wash-off of the test compounds. After approximately 3 weeks, the condition of the test plants as compared with that of the untreated plants was determined visually and scored on a scale of 0 to 100 percent where 0 corresponds to no injury or growth inhibition and 100 corresponds to complete kill.
(§8) Colby's equation was used to determine the herbicidal effects expected from the mixtures (Colby, S. R. Calculation of the synergistic and antagonistic response of herbicide combinations. Weeds 1967, 15, 20-22.).
(§9) The following equation was used to calculate the expected activity of mixtures containing two active ingredients, A and B: Expected=A+B−(A×B/100)

[2] = tested on: BRAPP; type: in vivo
From the text: (§10) Seeds or nutlets of the desired test plant species were planted in a soil matrix prepared by mixing aloam or sandy loam soil (e.g., 28.6 percent silt, 18.8 percent clay, and 52.6 percent sand, with a pH of about 5.8 and an organic matter content of about 1.8 percent) and calcareous grit in an 80 to 20 ratio. The soil matrix was contained in plastic pots with a volume of 1 quart and a surface area of 83.6 square centimeters (cm^2). When required to ensure good germination and healthy plants, a fungicide treatment and/or other chemical or physical treatment was applied. The plants were grown for 8-22 days in a greenhouse with an approximate 14 hour (h) photoperiod which was maintained at about 29° C. during the day and 26° C. during the night. Nutrients (Peters Excel® 15-5-15 5-Ca 2-Mg and iron chelate) were applied in the irrigation solution as needed and water was added on a regular basis. Supplemental lighting was provided with overhead metal halide 1000-Watt lamps as necessary. The plants were employed for testing when they reached the first through fourth true leaf stage.
as §2
(§11) Treatment requirements were calculated based upon the rates being tested, the concentration of active ingredient or acid equivalent in the formulation and a 12 milliliter (mL) application volume at a rate of 187 liters per hectare (L/ha).
as §3, §4, §5, §6
(§12) The treated plants and control plants were placed in a greenhouse as described above and watered by sub-irrigation to prevent wash-off of the test compounds. After approximately 3 weeks, the condition of the test plants as compared with that of the untreated plants was determined visually and scored on a scale of 0 to 100 percent where 0 corresponds to no injury or growth inhibition and 100 corresponds to complete kill. […]

[3] = tested on: CYPIR; type: in vivo, Cyperus iria L. (rice flatsedge)
Description: as §1, §2, §3, §4, §5, §6, §7, §8, §9

[4] = tested on: LEFCH; type: in vivo, Leptochloa chinensis (L.) Nees (Chinese sprangletop); details: 21 DAA
Description: as §1, §2, §3, §4, §5, §6, §7, §8, §9

[5] = tested on: IPOHE; type: in vivo, Ipomoea hederacea (L.) Jacq. (ivyleaf morningglory)
Description: as §1, §2, §3, §4, §5, §6, §7, §8, §9

[6] = tested on: ECHCO; type: in vivo, Echinochloa colonum (L.) LINK (junglerice); details: 21 DAA
From the text: as §10, §2, §11, §3, §4, §5, §6, §12

[7] = tested on: DIGSA; type: in vivo, Digitaria sanguinalis (L.) Scop. (large crabgrass)
From the text: as §10, §2, §11, §3, §4, §5, §6, §12

[8] = tested on: CYPES; type: in vivo, Cyperus esculentus L. (yellow nutsedge)
Description: as §1, §2, §3, §4, §5, §6, §12

[9] = r9-11 ester 8/16/32 g ae/ha alone, r12-14 hexaconazole 25/50/100 g ai/ha alone, r15-23 ester 8/16/32 at each of 25, 50, 100
[10] = r29-30 ester 8/16 g ae/ha alone, r31-33 hexaconazole 25/50/100 g ai/ha alone, r34-39 ester 8/16 at each of 25, 50, 100
[11] = r10-12 ester 8/16/32 g ae/ha alone, r13-14 isoprothiolane 266/533 g ai/ha alone, r15-20 ester 8/16/32 at each of 266, 533
[12] = r38-39 ester 8/16 g ae/ha alone, r40 isotianil 380 g ai/ha alone, r41-42 ester 8/16 + 380

CCCCC(O)(Cn1cncn1)c1ccc(Cl)cc1Cl (racemic) [Hexaconazole, reference compound]
0%: Visual Weed Control (%)—21 DAA ECHCG Obs [1, 9] | Visual Weed Control (%)—21 DAA BRAPP Obs [2, 10] | Visual Weed Control (%)—21 DAA CYPIR Obs ([3]; 21 DAA, r45 ester 8 g ae/ha alone, r46-48 hexaconazole 25/50/100 g ai/ha alone, r49-51 ester 8 + 25/50/100) | Visual Weed Control (%)—21 DAA LEFCH Obs [4, 9] | Visual Weed Control (%)—21 DAA IPOHE Obs [5, 10] | Visual Weed Control (%)—21 DAA ECHCO Obs [6, 9]

CO/C=C(/C(=O)OC)c1ccccc1Oc1cc(Oc2ccccc2C#N)ncn1 [Azoxystrobin, methyl (2E)-2-{2-[6-(2-cyanophenoxy)pyrimidin-4-yloxy]phenyl}3-methoxyacrylate, reference compound]
0%: Visual Weed Control (%) - 22 DAA BRAPP Obs ([2]; 22 DAA, r38-40 ester 8/16/32 g ae/ha alone, r41-42 azoxystrobin 125/250 g ai/ha alone, r43-48 ester 8/16/32 at each of 125, 250) | Visual Weed Control (%) - 22 DAA CYPIR Obs ([3]; 22 DAA, r22-23 ester 16/32 g ae/ha alone, r24-26 azoxystrobin 62.5/125/250 g ai/ha alone, r27-32 ester 16/32 at each of 62.5, 125, 250) | Visual Weed Control (%) - 21 DAA IPOHE Obs ([5]; r9-11 acid 5.3/10.6/21.2 g ae/ha alone, r12 azoxystrobin 250 g ai/ha alone, r13-15 acid 5.3/10.6/21.2 + 250) | Visual Weed Control (%) - 21 DAA IPOHE Obs ([5]; r10-12 ester 4.38/8.75/17.5 g ae/ha alone, r13 azoxystrobin 250 g ai/ha alone, r14-16 ester 4.38/8.75/17.5 + 250) | Visual Weed Control (%) - 21 DAA DIGSA Obs ([7]; 21 DAA, r9-11 acid 5.3/10.6/21.2 g ae/ha alone, r12 azoxystrobin 250 g ai/ha alone, r13-15 acid 5.3/10.6/21.2 + 250) | Visual Weed Control (%) - 21 DAA DIGSA Obs ([7]; 21 DAA, r10-12 ester 4.38/8.75/17.5 g ae/ha alone, r13 azoxystrobin 250 g ai/ha alone, r14-16 ester 4.38/8.75/17.5 + 250)

CC(C)OC(=O)C(C(=O)OC(C)C)=C1SCCS1 [Isoprothiolane, diisopropyl 1,3-dithiolan-2-ylidenemalonate, reference compound]
0%: Visual Weed Control (%) - 21 DAA CYPES Obs [8, 11] | Visual Weed Control (%) - 21 DAA CYPIR Obs ([3]; 21 DAA, r26-27 ester 16/32 g ae/ha alone, r28-29 isoprothiolane 266/533 g ai/ha alone, r30-33 ester 16/32 at each of 266, 533) | Visual Weed Control (%) - 21 DAA LEFCH Obs [4, 11]

N#Cc1ccccc1NC(=O)c1snc(Cl)c1Cl [Isotianil, 3,4-dichloro-2′-cyano-1,2-thiazole-5-carboxanilide, reference compound]
0%: Visual Weed Control (%)—21 DAA ECHCG Obs [1, 12] | Visual Weed Control (%)—20 DAA BRAPP Obs ([2]; 20 DAA, r9-11 ester 8/16/32 g ae/ha alone, r12 isotianil 200 g ai/ha alone, r13-15 ester 8/16/32 + 200) | Visual Weed Control (%)—21 DAA BRAPP Obs [2, 12] | Visual Weed Control (%)—21 DAA LEFCH Obs [4, 12] | Visual Weed Control (%)—21 DAA ECHCO Obs [6, 12] | Visual Weed Control (%)—20 DAA DIGSA Obs ([7]; 20 DAA, r21-23 ester 8/16/32 g ae/ha alone, r24-25 isotianil 100/200 g ai/ha alone, r26-31 ester 8/16/32 at each of 100, 200) | Visual Weed Control (%)—21 DAA DIGSA Obs ([7]; 21 DAA, r38-39 ester 8/16 g ae/ha alone, r40 isotianil 380 g ai/ha alone, r41-42 ester 8/16 + 380)

O=C1CCc2cccc3c2N1CC3 [Pyroquilon, 1,2,5,6-tetrahydropyrrolo[3,2,1-ij]quinolin-4-one, reference compound]
0%: Visual Weed Control (%) - 21 DAA CYPES Obs ([8]; r11-12 ester 8/16 g ae/ha alone, r13 pyroquilon 925 g ai/ha alone, r14-15 ester 8/16 + 925) | Visual Weed Control (%) - 21 DAA CYPIR Obs ([3]; 21 DAA, r23-24 ester 16/32 g ae/ha alone, r25 pyroquilon 925 g ai/ha alone, r26-27 ester 16/32 + 925)
